Laboratory results published in US20240025887A1, “THIENYL AND CYCLOALKYL AMINOPYRIMIDINE COMPOUNDS AS INHIBITORS OF NUAK KINASES, COMPOSITIONS AND USES THEREOF” (Ontario Institute for Cancer Research (OICR), priority 2021, published 2024).
Where a name gives a salt, the structure may show the parent alone.

Columns and labels:
Assay type in all cases: biochemical
Aurora A = biological target: T1, Aurora A (Homo sapiens, UniProt O14965); experiment: Aurora A counter screen; details: read-out: AUR-A (IC50)
T1 sequence (O14965 1-403): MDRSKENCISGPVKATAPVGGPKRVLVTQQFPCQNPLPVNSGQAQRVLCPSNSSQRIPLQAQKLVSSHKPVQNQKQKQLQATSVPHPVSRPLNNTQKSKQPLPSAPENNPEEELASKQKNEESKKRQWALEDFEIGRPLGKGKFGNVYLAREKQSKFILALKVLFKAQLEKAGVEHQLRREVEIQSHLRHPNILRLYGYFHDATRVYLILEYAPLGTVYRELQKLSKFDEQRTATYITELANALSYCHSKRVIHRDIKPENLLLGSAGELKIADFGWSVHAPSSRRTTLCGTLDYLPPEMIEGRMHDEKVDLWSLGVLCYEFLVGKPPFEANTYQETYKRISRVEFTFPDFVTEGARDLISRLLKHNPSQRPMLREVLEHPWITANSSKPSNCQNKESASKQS
Method in brief: (§1)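 Radiometric assay with full-length recombinant NUAK2 in 8 mM MOPS pH 7.0, 0.2 mM EDTA, 10 mM magnesium acetate, 300 μM peptide substrate and [33P]-ATP, 40 min at room temperature. Phosphoric acid stop, filter capture, scintillation counting. Aurora A and NUAK1 used as counter screens.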

NUAK2 (h) = biological target: T2, NUAK2 (h) (Homo sapiens, UniProt Q9H093); experiment: NUAK2 enzymatic assay (radiometric, Eurofins); details: for IC50: radiometric, full-length recombinant enzyme
T2 construct: This assay was done radiometrically using full-length, recombinant enzyme; purchased Eurofins
T2 sequence (Q9H093 1-628): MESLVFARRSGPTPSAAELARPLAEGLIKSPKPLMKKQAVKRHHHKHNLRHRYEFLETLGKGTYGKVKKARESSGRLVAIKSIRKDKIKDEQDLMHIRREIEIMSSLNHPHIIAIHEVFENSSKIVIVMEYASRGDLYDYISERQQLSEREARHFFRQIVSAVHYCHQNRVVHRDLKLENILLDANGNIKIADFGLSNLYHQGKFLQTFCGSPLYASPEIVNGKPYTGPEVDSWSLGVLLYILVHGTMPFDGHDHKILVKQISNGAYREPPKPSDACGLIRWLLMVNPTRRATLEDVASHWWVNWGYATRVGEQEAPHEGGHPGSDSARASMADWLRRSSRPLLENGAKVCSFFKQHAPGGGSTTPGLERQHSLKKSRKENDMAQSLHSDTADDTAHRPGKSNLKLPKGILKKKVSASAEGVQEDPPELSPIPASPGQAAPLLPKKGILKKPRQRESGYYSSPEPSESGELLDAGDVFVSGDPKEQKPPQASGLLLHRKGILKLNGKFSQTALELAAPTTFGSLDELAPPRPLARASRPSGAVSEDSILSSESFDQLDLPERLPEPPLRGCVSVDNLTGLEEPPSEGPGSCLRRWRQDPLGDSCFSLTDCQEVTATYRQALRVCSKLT
Method in brief: as §1

NUAK1 = biological target: T3, NUAK1 (Homo sapiens, UniProt O60285); experiment: NUAK1 counter screen
T3 sequence (O60285 1-661): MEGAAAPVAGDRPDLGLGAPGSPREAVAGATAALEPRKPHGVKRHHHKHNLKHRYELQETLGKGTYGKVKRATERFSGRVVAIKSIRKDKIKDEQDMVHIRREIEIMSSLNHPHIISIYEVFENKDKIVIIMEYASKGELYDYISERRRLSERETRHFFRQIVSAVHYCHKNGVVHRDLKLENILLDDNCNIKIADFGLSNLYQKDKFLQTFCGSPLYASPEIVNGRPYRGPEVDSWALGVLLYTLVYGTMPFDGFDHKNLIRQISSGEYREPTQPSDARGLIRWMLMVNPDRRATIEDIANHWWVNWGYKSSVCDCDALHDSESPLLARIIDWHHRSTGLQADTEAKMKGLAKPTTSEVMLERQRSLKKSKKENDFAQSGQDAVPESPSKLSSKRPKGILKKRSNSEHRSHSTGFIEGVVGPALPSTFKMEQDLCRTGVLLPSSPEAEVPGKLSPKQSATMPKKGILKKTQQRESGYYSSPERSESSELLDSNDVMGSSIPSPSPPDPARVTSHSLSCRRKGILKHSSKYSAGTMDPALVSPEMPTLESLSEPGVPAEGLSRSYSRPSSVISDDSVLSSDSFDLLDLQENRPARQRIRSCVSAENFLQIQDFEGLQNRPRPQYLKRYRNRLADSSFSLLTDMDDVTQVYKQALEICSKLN
Method in brief: as §1

Row | Compound | IC50 (Aurora A) [nM] | IC50 (NUAK2 (h)) [nM] | IC50 (NUAK1) [nM] | AUR-A (IC50, nM)/NUAK2 (IC50, nM) (NUAK2 (h); NUAK2 selectivity over Aurora-A, ratio of IC50s)
1 | CN1CCN(c2cc(OC(F)F)c(Nc3ncc(Cl)c(Nc4ccsc4C(N)=O)n3)cc2F)CC1 [Compound I-6, 3-((5-chloro-2-((2-(difluoromethoxy)-5-fluoro-4-(4-methylpiperazin-1-yl)phenyl)amino)pyrimidin-4-yl)amino)thiophene-2-carboxamide] | 101 to 1000 | 11 to 100 | 11 to 100 | –
2 | CN1CCC2(CC1)CCN(c1ccc(Nc3ncc(Cl)c(Nc4ccsc4C(N)=O)n3)c(OC(F)F)c1)C2 [Compound I-53, 3-((5-chloro-2-((2-(difluoromethoxy)-4-(8-methyl-2,8-diazaspiro[4.5]decan-2-yl)phenyl)amino)pyrimidin-4-yl)amino)thiophene-2-carboxamide] | 101 to 1000 | 11 to 100 | 11 to 100 | –
3 | NC(=O)c1sccc1Nc1nc(Nc2ccc(N3CCC(N4CCCCC4)CC3)cc2OC(F)F)ncc1C(F)(F)F [Compound I-76] | 101 to 1000 | 0.1 to 10 | 11 to 100 | –
4 | NC(=O)c1ccsc1Nc1nc(Nc2ccc(N3CCCC3)cc2OC(F)F)ncc1Cl [Compound I-31, 2-((5-chloro-2-((2-(difluoromethoxy)-4-(pyrrolidin-1-yl)phenyl)amino)pyrimidin-4-yl)amino)thiophene-3-carboxamide] | > 1000 | > 1000 | 101 to 1000 | –
5 | CCN1CCN(C2CCN(c3ccc(Nc4ncc(Cl)c(Nc5ccsc5C(N)=O)n4)c(OC(F)F)c3)CC2)CC1 [Compound I-61, 3-((5-chloro-2-((2-(difluoromethoxy)-4-(4-(4-ethylpiperazin-1-yl)piperidin-1-yl)phenyl)amino)pyrimidin-4-yl)amino)thiophene-2-carboxamide] | 11 to 100 | 11 to 100 | 11 to 100 | –
6 | NC(=O)c1ccsc1Nc1nc(Nc2ccc(N3CCNCC3)cc2OC(F)F)ncc1Cl [Compound I-2, 2-((5-chloro-2-((2-(difluoromethoxy)-4-(piperazin-1-yl)phenyl)amino)pyrimidin-4-yl)amino)thiophene-3-carboxamide] | > 1000 | 11 to 100 | 11 to 100 | –
7 | C[C@@H]1CN(C2CCN(c3ccc(Nc4ncc(Cl)c(Nc5ccsc5C(N)=O)n4)c(OC(F)F)c3)CC2)C[C@H](C)N1C [Compound I-64, 3-((5-chloro-2-((2-(difluoromethoxy)-4-(4-((3R,5S)-3,4,5-trimethylpiperazin-1-yl)piperidin-1-yl)phenyl)amino)pyrimidin-4-yl)amino)thiophene-2-carboxamide] | 101 to 1000 | 0.1 to 10 | 11 to 100 | –
8 | CNC(=O)c1sccc1Nc1nc(Nc2ccc(N3CCN(C)CC3)cc2OC(F)F)ncc1Cl [Compound I-7, 3-((5-chloro-2-((2-(difluoromethoxy)-4-(4-methylpiperazin-1-yl)phenyl)amino)pyrimidin-4-yl)amino)-N-methylthiophene-2-carboxamide] | 101 to 1000 | 11 to 100 | 11 to 100 | –
9 | COCCN1CCN(c2ccc(Nc3ncc(Cl)c(Nc4ccsc4C(N)=O)n3)c(OC(F)F)c2)CC1 [Compound I-50, 3-((5-chloro-2-((2-(difluoromethoxy)-4-(4-(2-methoxyethyl)piperazin-1-yl)phenyl)amino)pyrimidin-4-yl)amino)thiophene-2-carboxamide] | 11 to 100 | 11 to 100 | 11 to 100 | –
10 | CN1CCN(c2ccc(Nc3ncc(C(F)(F)F)c(Nc4ccsc4C(N)=O)n3)c(OC(F)F)c2)CC1 [Compound I-27, 3-((2-((2-(difluoromethoxy)-4-(4-methylpiperazin-1-yl)phenyl)amino)-5-(trifluoromethyl)pyrimidin-4-yl)amino)thiophene-2-carboxamide] | 101 to 1000 | 0.1 to 10 | 0.1 to 10 | –
11 | C[C@H]1CN(c2ccc(Nc3ncc(Cl)c(Nc4sccc4C(N)=O)n3)c(OC(F)F)c2)CCN1C [Compound I-23, (S)-2-((5-chloro-2-((2-(difluoromethoxy)-4-(3,4-dimethylpiperazin-1-yl)phenyl)amino)pyrimidin-4-yl)amino)thiophene-3-carboxamide] | 101 to 1000 | 11 to 100 | 11 to 100 | –
12 | CN1C2CCC1CN(c1ccc(Nc3ncc(Cl)c(Nc4sccc4C(N)=O)n3)c(OC(F)F)c1)C2 [Compound I-32, 2-((5-chloro-2-((2-(difluoromethoxy)-4-(8-methyl-3,8-diazabicyclo[3.2.1]octan-3-yl)phenyl)amino)pyrimidin-4-yl)amino)thiophene-3-carboxamide] | 101 to 1000 | 11 to 100 | 11 to 100 | –
13 | CC(C)N1CCN(c2ccc(Nc3ncc(Cl)c(Nc4ccsc4C(N)=O)n3)c(OC(F)F)c2)CC1 [Compound I-12, 3-((5-chloro-2-((2-(difluoromethoxy)-4-(4-isopropylpiperazin-1-yl)phenyl)amino)pyrimidin-4-yl)amino)thiophene-2-carboxamide hydrochloride] | 11 to 100 | 0.1 to 10 | 0.1 to 10 | –
14 | CC(C)(C)N1CCN(C2CCN(c3ccc(Nc4ncc(Cl)c(Nc5ccsc5C(N)=O)n4)c(OC(F)F)c3)CC2)CC1 [Compound I-63, 3-((2-((4-(4-(4-(tert-butyl)piperazin-1-yl)piperidin-1-yl)-2-(difluoromethoxy)phenyl)amino)-5-chloropyrimidin-4-yl)amino)thiophene-2-carboxamide] | 101 to 1000 | 11 to 100 | 0.1 to 10 | –
15 | NC(=O)c1sccc1Nc1nc(Nc2ccc(N3CCN4CCOC[C@@H]4C3)cc2OC(F)F)ncc1Cl [Compound I-49, (S)-3-((5-chloro-2-((2-(difluoromethoxy)-4-(hexahydropyrazino[2,1-c][1,4]oxazin-8(1H)-yl)phenyl)amino)pyrimidin-4-yl)amino)thiophene-2-carboxamide] | 101 to 1000 | 11 to 100 | 11 to 100 | –
16 | C[C@H]1CN(C2CCN(c3ccc(Nc4ncc(C(F)(F)F)c(Nc5ccsc5C(N)=O)n4)c(OC(F)F)c3)CC2)CCN1C [Compound I-68, (S)-3-((2-((2-(difluoromethoxy)-4-(4-(3,4-dimethylpiperazin-1-yl)piperidin-1-yl)phenyl)amino)-5-(trifluoromethyl)pyrimidin-4-yl)amino)thiophene-2-carboxamide] | 101 to 1000 | 11 to 100 | 11 to 100 | –
17 | CN1CCN(c2ccc(Nc3ncc(Cl)c(Nc4ccsc4C(N)=O)n3)c(Cl)c2F)CC1 [Compound C-4, reference compound] | 101 to 1000 | 0.1 to 10 | 0.1 to 10 | 50
18 | Cc1csc(Nc2nc(Nc3ccc(N4CCN(C)CC4)cc3OC(F)F)ncc2Cl)c1C(N)=O [Compound I-15, 2-((5-chloro-2-((2-(difluoromethoxy)-4-(4-methylpiperazin-1-yl)phenyl)amino)pyrimidin-4-yl)amino)-4-methylthiophene-3-carboxamide] | 101 to 1000 | 11 to 100 | 11 to 100 | –
19 | C[C@H]1CN(C)CCN1c1ccc(Nc2ncc(Cl)c(Nc3ccsc3C(N)=O)n2)c(OC(F)F)c1 [Compound I-29, (S)-3-((5-chloro-2-((2-(difluoromethoxy)-4-(2,4-dimethylpiperazin-1-yl)phenyl)amino)pyrimidin-4-yl)amino)thiophene-2-carboxamide] | 101 to 1000 | 11 to 100 | 11 to 100 | –
